The IC50 is the concentration at which inhibition is half-maximal. A lower IC50 goes with greater potency in that assay. For orientation: inhibition means how much of the control response was suppressed. High values mean strong suppression, low ones little suppression.

The target in one series is T1, GR (Homo sapiens, UniProt P04150).
T1 construct: expressed in transfected cells; host or cells: CHO-K1
T1 sequence (P04150 1-777): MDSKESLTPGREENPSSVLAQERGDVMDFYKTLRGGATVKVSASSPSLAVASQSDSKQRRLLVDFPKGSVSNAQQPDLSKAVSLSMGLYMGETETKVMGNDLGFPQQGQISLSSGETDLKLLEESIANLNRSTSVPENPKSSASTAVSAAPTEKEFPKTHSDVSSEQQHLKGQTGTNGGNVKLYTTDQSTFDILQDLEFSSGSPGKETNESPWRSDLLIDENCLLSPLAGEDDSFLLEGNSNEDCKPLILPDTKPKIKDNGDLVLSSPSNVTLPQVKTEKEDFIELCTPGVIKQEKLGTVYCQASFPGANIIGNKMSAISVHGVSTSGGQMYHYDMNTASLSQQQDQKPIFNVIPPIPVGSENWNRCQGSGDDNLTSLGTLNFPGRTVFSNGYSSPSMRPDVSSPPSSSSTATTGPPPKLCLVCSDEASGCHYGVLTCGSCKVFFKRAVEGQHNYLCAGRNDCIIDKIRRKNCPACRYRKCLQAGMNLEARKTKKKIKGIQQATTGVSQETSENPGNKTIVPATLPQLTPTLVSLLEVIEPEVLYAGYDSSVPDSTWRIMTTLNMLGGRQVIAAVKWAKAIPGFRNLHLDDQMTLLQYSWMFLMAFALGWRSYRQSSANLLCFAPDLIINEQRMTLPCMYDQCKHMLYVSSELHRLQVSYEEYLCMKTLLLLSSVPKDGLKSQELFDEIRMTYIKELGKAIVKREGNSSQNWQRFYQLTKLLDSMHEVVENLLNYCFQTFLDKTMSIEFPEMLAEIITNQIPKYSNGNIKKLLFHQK
Description: In Vitro GR Luciferase Reporter Assay (antagonist mode, CHO-K1-GR-MMTV-Luc reporter cells). Format: cell-based. The conditions noted are these: antagonist mode, 10 nM Dexamethasone. The method, boiled down: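 CHO-K1-GR-MMTV-Luc cells in phenol red-free DMEM with 10% CSS, stimulated with 10 nM dexamethasone (final) and treated with 8-point 1:5 compound dilutions for about 18-24 h at 37° C. Luciferase measured by OneGlo luminescence; IC50 derived for inhibition of GR activity.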

A further series deals with T2, CYP2C8 (Homo sapiens, UniProt P10632).
T2 construct: Pooled human microsomes were obtained from Sekisui XenoTech, KS; tissue Sekisui XenoTech, KS; host or cells: pooled human liver microsomes
T2 sequence (P10632 1-490): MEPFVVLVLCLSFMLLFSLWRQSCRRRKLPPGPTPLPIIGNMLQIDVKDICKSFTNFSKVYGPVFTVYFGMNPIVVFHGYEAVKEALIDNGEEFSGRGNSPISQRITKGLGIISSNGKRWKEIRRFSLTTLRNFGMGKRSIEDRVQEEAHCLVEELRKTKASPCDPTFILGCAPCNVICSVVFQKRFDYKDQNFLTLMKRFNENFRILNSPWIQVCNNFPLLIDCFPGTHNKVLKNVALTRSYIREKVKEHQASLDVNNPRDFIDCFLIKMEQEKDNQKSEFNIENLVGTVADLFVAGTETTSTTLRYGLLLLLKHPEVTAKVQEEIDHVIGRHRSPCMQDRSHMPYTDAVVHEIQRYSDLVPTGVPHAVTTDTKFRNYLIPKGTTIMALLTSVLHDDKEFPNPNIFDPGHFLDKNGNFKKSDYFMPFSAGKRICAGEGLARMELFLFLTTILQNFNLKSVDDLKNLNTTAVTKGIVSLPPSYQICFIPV
Description: CYP Inhibition Assay (CYP2C8, human liver microsomes, paclitaxel substrate). The following applies: pH 7.4; pooled human liver microsomes 0.1 mg/mL, probe substrate paclitaxel. Format: in vitro ADME. How it is done:
Example B: CYP Inhibition Assay
Objective: To assess the % inhibition of test compounds against CYP2C8 enzyme in human liver microsomes.
Pooled human microsomes were obtained from Sekisui XenoTech, KS, and were used for in vitro assessment of compound inhibitory potential of the major drug metabolizing human CYP enzymes.
Test compounds were dissolved in DMSO as 10 mM stock solutions and diluted to 200 µM in acetonitrile as working solutions. The total concentrations of DMSO and acetonitrile were 0.02% and 0.5%, respectively, in the assay.
The assay was performed in duplicate in a 96-well plate. The reaction mixture ([…]) containing a final concentration of 0.1 mg/mL pooled human liver microsomes, 50 mM potassium phosphate, pH 7.4 buffer, was re-warmed at 37° C. for 5 minutes. The reaction was initiated with NADPH solution which was at 1 mM final concentration, and carried out for 5 minutes at 37° C. It was terminated by the addition of 3-fold volume of quench solution (1:1 acetonitrile:methanol with 0.1% formic acid and the internal standard of tolbutamide). The sample was vortexed, centrifuged at 4,000 rpm for 15 min at 4° C. The incubation in the presence of vehicle (0.02% DMSO and 0.5% acetonitrile) was used as the enzyme activity control. The analyses of metabolite 6α-hydroxypaclitaxel in supernatant was performed with LC-MS/MS method (Sciex API 4500 Qtrap coupled to a Shimadzu LC-20AD HPLC).
The CYP enzyme activity was determined based on the formation of 6a-hydroxypaclitaxel metabolite. The % inhibition was calculated using this equation: % Inhibition=100×(1−Ainactivator/Avehicle), where Ainactivator is the CYP enzyme activity in the presence of test compound, and Avehicle is the CYP activity in the presence of vehicle.
Background: Liver microsomes are a subcellular fraction often used to study metabolism.

Take `CN([C@H]1CCC2=Cc3c(cnn3-c3ccc(F)cc3)C[C@]2(C(=O)c2cc(C(F)(F)F)ccn2)C1)S(=O)(=O)c1ccnn1C` [Example 156, N-((4aS,6S)-1-(4-fluorophenyl)-4a-(4-(trifluoromethyl)picolinoyl)-4,4a,5,6,7,8-hexahydro-1H-benzo[f]indazol-6-yl)-N,1-dimethyl-1H-pyrazole-5-sulfonamide]: the IC50 at GR is no more than 100 nM. The same compound displayed an inhibition at 5 min against CYP2C8 of 75 to 90%.

In the case of `Cn1ccc(S(=O)(=O)N(C2CC2)[C@H]2CCC3=Cc4c(cnn4-c4ccc(F)cc4)C[C@]3(C(=O)c3ncc(C4CC4)s3)C2)n1` [Example 160, N-cyclopropyl-N-((4aS,6S)-4a-(5-cyclopropylthiazole-2-carbonyl)-1-(4-fluorophenyl)-4,4a,5,6,7,8-hexahydro-1H-benzo[f]indazol-6-yl)-1-methyl-1H-pyrazole-3-sulfonamide], the IC50 against GR was no more than 100 nM. This compound displayed an inhibition at 5 min on CYP2C8 of 50 to 75%.

On GR, `Cn1ccc(S(=O)(=O)N(C2CC2)[C@H]2CCC3=Cc4c(cnn4-c4ccc(F)cc4)C[C@]3(C(=O)c3ncc(C(F)(F)F)s3)C2)n1` [Example 164, N-cyclopropyl-N-((4aS,6S)-1-(4-fluorophenyl)-4a-(5 (trifluoromethyl)thiazole-2-carbonyl)-4,4a,5,6,7,8-hexahydro-1H-benzo[f]indazol-6-yl)-1-methyl-1H-pyrazole-3-sulfonamide] came in with an IC50 of no more than 100 nM. Moreover, the inhibition at 5 min against CYP2C8 lay in the range of 50 to 75%.

In turn, `CCN([C@H]1CCC2=Cc3c(cnn3-c3ccc(F)cc3)C[C@]2(C(=O)c2cc(C(F)(F)F)ccn2)C1)S(=O)(=O)c1cnn(C(F)F)c1` [Example 166, 1-(difluoromethyl)-N-ethyl-N-((4aS,6S)-1-(4-fluorophenyl)-4a-(4-(trifluoromethyl)picolinoyl)-4,4a,5,6,7,8-hexahydro-1H-benzo[f]indazol-6-yl)-1H-pyrazole-4-sulfonamide] showed an IC50 against GR of no more than 100 nM. For the same compound, the inhibition at 5 min against CYP2C8 lay in the range of 25 to 50%.

`CN([C@H]1CCC2=Cc3c(cnn3-c3ccc(F)cc3)C[C@]2(C(=O)c2cc(C(F)(F)F)ccn2)C1)S(=O)(=O)c1cn(C)nn1` [Example 170, N-((4aS,6S)-1-(4-fluorophenyl)-4a-(4-(trifluoromethyl)picolinoyl)-4,4a,5,6,7,8-hexahydro-1H-benzo[f]indazol-6-yl)-N,1-dimethyl-1H-1,2,3-triazole-4-sulfonamide] showed an IC50 against GR of no more than 100 nM. The compound further returned an inhibition at 5 min on CYP2C8 of no more than 25%.

`Cn1cc(S(=O)(=O)N(C2CC2)[C@H]2CCC3=Cc4c(cnn4-c4ccc(F)cc4)C[C@]3(C(=O)c3ncc(C(F)(F)F)s3)C2)cn1` [Example 176, N-cyclopropyl-N-((4aS,6S)-1-(4-fluorophenyl)-4a-(5 (trifluoromethyl)thiazole-2-carbonyl)-4,4a,5,6,7,8-hexahydro-1H-benzo[f]indazol-6-yl)-1-methyl-1H-pyrazole-4-sulfonamide] displayed an IC50 on GR of no more than 100 nM. The inhibition at 5 min against CYP2C8 was in the range of 25 to 50%.

Compound `Cn1ccc(S(=O)(=O)N(CC2CC2)[C@H]2CCC3=Cc4c(cnn4-c4ccc(F)cc4)C[C@]3(C(=O)c3cc(C(F)(F)F)ccn3)C2)n1` [Example 178, N-(cyclopropylmethyl)-N-((4aS,6S)-1-(4-fluorophenyl)-4a-(4-(trifluoromethyl)picolinoyl)-4,4a,5,6,7,8-hexahydro-1H-benzo[f]indazol-6-yl)-1-methyl-1H-pyrazole-3-sulfonamide] had an IC50 against GR of no more than 100 nM. In addition, the inhibition at 5 min against CYP2C8 was 25 to 50%.

With `CC(C)N([C@H]1CCC2=Cc3c(cnn3-c3ccc(F)cc3)C[C@]2(C(=O)c2ncc(C(F)(F)F)s2)C1)S(=O)(=O)c1ccn(C)n1` [Example 182, N-((4aS,6S)-1-(4-fluorophenyl)-4a-(5-(trifluoromethyl)thiazole-2-carbonyl)-4,4a,5,6,7,8-hexahydro-1H-benzo[f]indazol-6-yl)-N-isopropyl-1-methyl-1H-pyrazole-3-sulfonamide], the IC50 against GR is no more than 100 nM. The same compound displayed an inhibition at 5 min against CYP2C8 of 50 to 75%.

With `Cn1ncc(S(=O)(=O)N(C2CC2)[C@H]2CCC3=Cc4c(cnn4-c4ccc(F)cc4)C[C@]3(C(=O)c3ncc(C(F)(F)F)s3)C2)n1` [Example 183, N-cyclopropyl-N-((4aS,6S)-1-(4-fluorophenyl)-4a-(5 (trifluoromethyl)thiazole-2-carbonyl)-4,4a,5,6,7,8-hexahydro-1H-benzo[f]indazol-6-yl)-2-methyl-2H-1,2,3-triazole-4-sulfonamide], on GR, the IC50 is no more than 100 nM. Besides, the inhibition at 5 min at CYP2C8 is 25 to 50%.

The compound `Cn1ccc(S(=O)(=O)N(CC(F)(F)F)[C@H]2CCC3=Cc4c(cnn4-c4ccc(F)cc4)C[C@]3(C(=O)c3ncc(C(F)(F)F)s3)C2)n1` [Example 184, N-((4aS,6S)-1-(4-fluorophenyl)-4a-(5-(trifluoromethyl)thiazole-2-carbonyl)-4,4a,5,6,7,8-hexahydro-1H-benzo[f]indazol-6-yl)-1-methyl-N-(2,2,2-trifluoroethyl)-1H-pyrazole-3-sulfonamide] yielded an IC50 against GR of no more than 100 nM. The compound further yielded an inhibition at 5 min against CYP2C8 of 25 to 50%.

At GR, `Cn1ccc(S(=O)(=O)N(CC(C)(C)O)[C@H]2CCC3=Cc4c(cnn4-c4ccc(F)cc4)C[C@]3(C(=O)c3ncc(C(F)(F)F)s3)C2)n1` [Example 189, N-((4aS,6S)-1-(4-fluorophenyl)-4a-(5-(trifluoromethyl)thiazole-2-carbonyl)-4,4a,5,6,7,8-hexahydro-1H-benzo[f]indazol-6-yl)-N-(2-hydroxy-2-methylpropyl)-1-methyl-1H-pyrazole-3-sulfonamide] showed an IC50 of no more than 100 nM. At CYP2C8, this compound returned an inhibition at 5 min of 50 to 75%.

Consider `CC(C)N([C@H]1CCC2=Cc3c(cnn3-c3ccc(F)cc3)C[C@]2(C(=O)c2ncc(C(F)(F)F)s2)C1)S(=O)(=O)c1cnn(C)c1` [Example 191, N-((4aS,6S)-1-(4-fluorophenyl)-4a-(5-(trifluoromethyl)thiazole-2-carbonyl)-4,4a,5,6,7,8-hexahydro-1H-benzo[f]indazol-6-yl)-N-isopropyl-1-methyl-1H-pyrazole-4-sulfonamide], for which the IC50 against GR was no more than 100 nM. Moreover, on CYP2C8, the inhibition at 5 min was in the range of 25 to 50%.

Compound `CC(C)N([C@H]1CCC2=Cc3c(cnn3-c3ccc(F)cc3)C[C@]2(C(=O)c2cc(C(F)(F)F)ccn2)C1)S(=O)(=O)c1cnn(C)c1` [Example 193, N-((4aS,6S)-1-(4-fluorophenyl)-4a-(4-(trifluoromethyl)picolinoyl)-4,4a,5,6,7,8-hexahydro-1H-benzo[f]indazol-6-yl)-N-isopropyl-1-methyl-1H-pyrazole-4-sulfonamide] displayed an IC50 against GR of no more than 100 nM. The inhibition at 5 min against CYP2C8 lay within 50 to 75%.
